Measurements published in EP4050002A1, “ANTI-PROLIFERATIVE AGENTS” (First Health Pharmaceuticals B.V., priority 2021, dated 2022).

What was measured:
[1] = test system: MCF10a; assay: Cytotoxicity in non-tumor cells, cell count method; assay type: cell-based, human
Method: The non-specific toxicity of the compounds is evaluated in non-tumor immortalized cells with cell count and / or MTS methods, and in primary Peripheral Blood Mononuclear Cells (PBMC) with the ATP-based method.
Cells were seeded at 3 to 5 x 10^4 cells/well density depending on cell lines and maintained at 37°C in 5% CO2. After 24 hours cells were treated with ascending concentrations of the investigational compounds and the reference (5-fluoro-Uracyl) in a range from 0 to 100 µM. Compounds were dissolved in DMSO which final concentration in each well was 0.5% v:v. After 72 h of incubation with compounds, the cells were detached with trypsin and re-suspended in 1 ml of complete medium; the cell number was evaluated using a Z2 Coulter Counter ("cell count method") (Attallah and Johnson, A simple highly sensitive methods for the determination of cell viability using an electronic particle analyzer, Coulter counter J. Immunol. Methods. 1981, 41, 155; Leonardi et al., Activated kinase screening identifies the IKBKE oncogene as a positive regulator of autophagy. Autophagy, 2019, 15, 312). Alternatively, after the 72 hours of incubation with compounds, the MTS solution (CellTiter 96® AQueous One Solution Cell Proliferation Assay) is added to each well and absorbance at 490 nm wavelength is read after 2 hours of incubation ("MTS method"). […]

[2] = Tissue distribution after single I.P. administration; assay type: in vivo, male Swiss Albino Mice
Method: The pharmacokinetic study was performed in male Swiss albino mice from Hylasco Biotechnology Pvt. Ltd. (A Charles River technology Licensee). The tissue distribution study was performed in male Swiss albino mice and in male FOXN1^nu/nu nude mice (Envigo spa). The efficacy study was performed in male FOXN1^nu/nu nude mice.
Single intraperitoneal administration studies were done as follows: • 1. Compound 5 • dose 1: 45 mg/kg • dose concentration: […] in 10% DMSO, 5% TWEEN 80 and WFI (85%) • volume: 5 ml/kg • blood withdrawal time points: 0.25, 0.5, 1, 2, 4, 6, 8, 24 hours post administration • brain, liver and lungs collected at 4, 8 and 24 hours • 2. Compound 5 • dose 2: 10 mg/kg • dose concentration: 2 mg/ml in 10% DMSO, 10% Solutol and WFI (90%). • volume: 5 ml/kg • blood withdrawal time points: 0.25, 0.5, 1, 2, 4, 6, 8, 24 hours post administration
Selected organs were collected at 4, 8 and 24 hours for drug distribution studies: mice were anesthetized and intra-cardiac whole body perfusion was performed using chilled saline. Separated tissues were immediately washed, dried, weighed and frozen at -80±10°C until homogenization. The levels of compound in the tissues and in plasma were quantified by LC-MS/MS, using as instrument Q-TRAP 500, with a column Phenomenex, KINETEX 5µ EVO C18 50 mm X 4.5 mm (Phenomenex). The mobile phase employed was composed as follows: aqueous reservoir, 10 mM Ammonium Acetate with 0.1% Formic acid in MilliQ water; organic reservoir, Acetonitrile:Methanol (50:50, v/v); flow rate 1 ml/min; injection volume 10µl; rinsing solution, Acetonitrile:Methanol:Water (20:60:20, v/v).
Distribution to tissues is expressed as ratio between the compound level in tissues (ng compounds/ mg tissue) divided by the compound levels in blood (ng/ml), considering 1 ml of blood equal to […].

[3] = test system: Non-small cell lung cancer (cell line A549); assay: Subcutaneous xenograft mice model; assay type: in vivo, nude FOXN1nu/nu mice; settings: 45 mg/Kg I.P. every Monday, Wednesday and Friday for 5 weeks
Method: (§1) Human cancer cell lines were inoculated subcutaneously in nude FOXN1^nu/nu mice (Envigo spa) in both flanks.
(§2) The number of cells inoculated varied between different cell lines: • A549 and A549 Red-FLuc: 5 x 10^6 in medium:matrigel (1:1 v/v) • MDAMB231: 2.8 x 10^6 in medium:matrigel (1:2 v/v)
(§3) When tumors reach the appropriate volume for each cell line, the compounds were administered I.P. every 48 hours, 3 times a week every Monday, Wednesday and Friday for 5 weeks, at a dose selected from the PK study, as follows: • vehicle: 10% DMSO, 5% TWEEN 80 and WFI (85%) • treatment group dose: 45 mg/kg • control group: vehicle only • dose concentration: 12 mg/ml in 10% DMSO, 5% TWEEN 80 and WFI (85%) • volume: 5 ml/kg
(§4) Tumor volume was evaluated twice a week with caliper and calculated with the standard formula (Length ^∗ Height ^∗ Height)/2. Mice were weighed twice a week. Tumor growth is calculated with respect to the first day of treatment (day 0) as ratio between the volume at each day of measurement and day 0.

[4] = test system: Non-small cell lung cancer engineered with a luciferase reporter (cell line A549 Red-FLuc); assay: Subcutaneous xenograft mice model; assay type: in vivo, nude FOXN1nu/nu mice; settings: 45 mg/Kg I.P. every Monday, Wednesday and Friday for 5 weeks
Method: as §1, §2, §3, §4

[5] = test system: Triple negative breast cancer (cell line MDA-MB-231); assay: Subcutaneous xenograft mice model; assay type: in vivo, nude FOXN1nu/nu mice; settings: MDA-MB-231 xenograft, 45 mg/Kg I.P. every Monday, Wednesday and Friday for 5 weeks
Method: as §1, §2, §3, §4

[6] = 4 hours after single administration I.P. 45 mg/Kg
[7] = 8 hours after single administration I.P. 45 mg/Kg
[8] = 24 hours after single administration I.P. 45 mg/Kg

Q: What does the source list for `CCCCc1cn(-c2ccc(-c3nnc(-c4ccccc4C(F)(F)F)o3)cc2)nn1` [Compound 5]?
A: IC50 ([1]; Homo sapiens, MCF-10A, MCF10a, 72 hours of incubation, cell count method): 440 µM; toxicity ([1]; non tumor cell lines (Table 17)): above 100 µM; Liver to plasma [2, 6]: 11.2; Plasma [2, 6]: 2171 ng/mL; Liver to plasma [2, 7]: 9.2; Plasma [2, 7]: 775 ng/mL; Liver to plasma [2, 8]: 9.2; Plasma [2, 8]: 273 ng/mL; Kp at 4 h ([2]; mouse, brain, ip, 4 hours after single administration I.P. 45 mg/Kg, read-out: Brain to plasma): 2.4; Kp at 8 h ([2]; mouse, brain, ip, 8 hours after single administration I.P. 45 mg/Kg, read-out: Brain to plasma): 2.1; Kp at 24 h ([2]; mouse, brain, ip, 24 hours after single administration I.P. 45 mg/Kg, read-out: Brain to plasma): 1.75; tumor growth [3]: counteract tumor growth; tumor growth [4]: counteract tumor growth; tumor growth [5]: counteract tumor growth
